Test results reported in patent publication US20150141460A1, “Anti-inflammatory Compositions” (Cambridge Enterprise Limited, priority 2007, published 2015).

What was measured:
[1] = system: LPS-induced TNF-α production; experiment: Sub-lethal LPS-induced endotoxemia in mice, serum TNF-α by ELISA; format: in vivo; details: mice; doses above 1 μg/mouse; subcutaneous or oral route
Protocol: FIGS. 5A-5E show representative dose response curves for the inhibition of LPS induced TNF-α production in vivo in a murine model of sub-lethal endotoxemia. In each experiment, groups of six mice received pre-treatment with the five compounds (FIG. 5A: (II); FIG. 5B: (III); FIG. 5C: (V); FIG. 5D: (I′) and FIG. 5E: (IV)) at various doses, via either the oral route (circles) or subcutaneous route (triangles). 30-60 mins later, animals were challenged with LPS via the intraperitoneal route, and serum was prepared from a terminal bleed 3 hours later. The level of TNF-α in the blood was measured by ELISA, and the degree of inhibition of LPS-induced TNF-α production (calculated as the concentration of TNF-α in mice exposed to LPS minus the concentration of TNF-α in mice which received a sham exposure to endotoxin-free PBS) is shown on the Y-axis of each graph as the mean of six animals, with whiskers representing SEMs. The concentration of TNF-α in mice receiving LPS but no BSCI treatment was typically 5,000 to 6,000 pg/ml on average (compared to <10 pg/ml in unchallenged mice). The ED50 was estimated by linear interpolation of the presented graphs. The X-axis of each graph represents the dose of each compound administered to each mouse in the group in units of mg (1E-07 to 1).
In this assay, mice are given a non-specific pro-inflammatory challenge using bacterial endotoxin (LPS), and the extent of the systemic inflammatory response (measured by serum levels of the central pro-inflammatory cytokine TNF-α, which is essentially absent from the blood under normal conditions, but is rapidly elevated in response to a wide range of inflammatory stimuli). We have selected this model even though it is not, itself, a particularly close model of any human inflammatory disease condition, but because TNF-α is known to be important in very many diseases (including rheumatoid arthritis, autoimmune disorders, Crohn's Disease, atherosclerosis, asthma and many more). Consequently, agents which suppress TNF-α production are already used clinically (e.g. Enbrel™ and other anti-TNF-α antibody products) to treat a wide range of such diseases.
Mice (in groups of 6) were pretreated with various doses of each compound, either by the subcutaneous route 30 mins prior to LPS challenge, or by the oral route (via gavage) 60 mins prior to LPS. The mice were then challenged with an intraperitoneal injection of 750 μg of bacterial LPS and sacrificed 3 hours later. Serum was prepared from a terminal bleed by cardiac puncture, and the concentration of TNF-α is determined by ELISA (R&D Systems). In each experiment, a group of 6 mice receive no LPS to act as a negative control, and a second group receive only LPS (with no candidate inhibitor). […]

leukocytes in BAL fluid = experiment: Ovalbumin-induced lung inflammation model of asthma, cell counts in BAL fluid; format: in vivo, Brown Norway rats; details: 0.3 mg/kg daily by oral gavage day 8 to 21; p<0.01
From the text: Bars represent mean cell counts, shown on the Y axis in units of 10^6 cells, for groups of […] with whiskers representing SEM; * p<0.01 versus ‘sensitised’ using Student's unpaired t-test assuming equal variance, with two tails). The horizontal line represents the average number of leukocytes present in BAL fluid from the lungs of unchallenged rats. All rats in the remaining three groups received the same sensitisation and challenge regimen, but were either treated with vehicle only (‘Sensitised’), or with compound (I′) at 0.3 mg/kg bodyweight or with monteleukast (‘Singulair™’) at 30 mg/kg bodyweight, all administered daily by oral gavage.
Adult Brown Norway rats (200-300 g body weight; n=10 per group) were sensitised by a single intraperitoneal injection of 0.1 mg Ovalbumin on day 0. Each rat then received an intratracheal challenge with a solution of 1% ovalbumin (w/v) on day 8, and with 2% ovalbumin (w/v) on days 15, 18 and 21. The animals were then sacrificed 3 hours after the final challenge on day 21. […]
On sacrifice, total lung leukocyate recruitment was assessed by performing a broncheoalveolar lavage (BAL) using 4 lots of 3 ml sterile phosphate-buffered saline introduced through a tracheal cannula. For each animal, the BAL washes were combined, and the total cell population counted (using a haemocytometer). […]

CC(C)(C)C(=O)N[C@H]1CCCNC1=O [Compound (I′), (S)-3-(2′,2′-dimethylpropanoylamino)-tetrahydropyridin-2-one]
suppression of LPS-induced TNF-α levels [1]: more than 90% | reduction of the number of leukocytes in the BAL washes (leukocytes in BAL fluid): 70%
